The values below come from patent US9394299B2, “Rilyazine derivatives and compositions for the treatment of cancer” (Warner Babcock Institute for Green Chemistry, LLC, priority 2013, dated 2016).

“Also recorded” adds a separate entry of the source.

In this data set the test system is 60 cell lines (human tumor cell lines of the cancer screening panel). Briefly: NCI 60 cell line screening, five point dosing (SRB). The data set is classed as cell-based. As to the method:
RL-4 was evaluated against the 60 cell panel at five concentration levels, 10^−8 M, 10^−7 M, 10^−6 M, 10^−5 M and 10^−4 M.
The human tumor cell lines of the cancer screening panel are grown in RPMI 1640 medium containing 5% fetal bovine serum and 2 mM L-glutamine. Cells are inoculated into 96 well microtiter plates in 100 μL at plating densities ranging from 5,000 to 40,000 cells/well depending on the doubling time of individual cell lines. After cell inoculation, the microtiter plates are incubated at 37° C., 5% CO2, 95% air and 100% relative humidity for 24 h prior to addition of experimental drugs.
After 24 h, two plates of each cell line are fixed in situ with TCA, to represent a measurement of the cell population for each cell line at the time of drug addition Time Zero (Tz). Experimental drugs are solubilized in dimethyl sulfoxide:glycerol 9:1 at 400-fold the desired final maximum test concentration and stored frozen at −70° C. prior to use. At the time of drug addition, an aliquot of frozen concentrate is thawed and diluted to twice the desired final maximum test concentration with complete medium containing 50 μg/ml gentamicin. Additional four, 10-fold or ½ log serial dilutions are made to provide a total of five drug concentrations plus control. Aliquots of 100 μl of these different drug dilutions are added to the appropriate microtiter wells already containing 100 μl of medium, resulting in the required final drug concentrations.
Positive control is prepared by adding the known anti-tumor agent adriamycin, NSC 123127, prepared and stored the same as the compounds for testing.
Following drug addition, the plates are incubated for an additional 48 h at 37° C., 5% CO2, 95% air, and 100% relative humidity. For adherent cells, the assay is terminated by the addition of cold TCA. Cells are fixed in situ by the gentle addition of 50 μl of cold 50% (w/v) TCA (final concentration, 10% TCA) and incubated for 60 minutes at 4° C. The supernatant is discarded, and the plates are washed five times with tap water and air dried. Sulforhodamine B (SRB) solution (100 μl) at 0.4% (w/v) in 1% acetic acid is added to each well, and plates are incubated for 10 minutes at room temperature. After staining, unbound dye is removed by washing five times with 1% acetic acid and the plates are air dried. Bound stain is subsequently solubilized with 10 mM trizma base, and the absorbance is read on an automated plate reader at a wavelength of 515 nm. For suspension cells, the methodology is the same except that the assay is terminated by fixing settled cells at the bottom of the wells by gently adding 50 μl of 80% TCA (final concentration, 16% TCA).
The percentage growth is calculated at each of the five drug concentrations levels using the seven absorbance measurements, namely absorbance at time zero (Tz), absorbance of control after incubation (C), and absorbance of test sample after incubation in the presence of drug at each of the five concentration levels (Ti). The Growth Percent is calculated as it was for the 1 dose assay: Growth Percent=[(Ti−Tz)/(C−Tz)]×100 for cell line/drug combinations for which Ti≧Tz. Growth Percent=[(Ti−Tz)/Tz]×100 for cell line/drug combinations for which Ti<Tz.
For the 5-dose 60 cell testing, three dose-response parameters are determined for each experimental agent. These parameters are Growth Inhibition of 50% (GI50), drug concentration resulting in Total Growth Inhibition (TGI), and concentration resulting in 50% lethality (LC50).
Growth inhibition of 50% (GI50) is determined as the drug concentration at which Growth Percent=[(Ti−Tz)/(C−Tz)]×100=50. GI50 is the drug concentration resulting in a 50% reduction in the net protein increase compared to the increase in protein in control cells (as measured by SRB staining) during the drug incubation.
The drug concentration resulting in total growth inhibition (TGI) is determined as the drug concentration at which Ti=Tz, which corresponds to a Growth Percent of zero. […]

Where [1] appears, read: five point dosing, 60 cell lines.

A word on the GI50: it is the concentration at which growth is held to half of that of the control.

`S=c1c2ncccc2c(-c2ccccn2)nn1C1CCCCC1` [RL-4, 7-cyclohexyl-5-(pyridin-2-yl)pyrido[2,3-d]pyridazine-8(7H)-thione]: under “Homo sapiens, five point dosing 10^−8 to 10^−4 M, mean of 60 cell lines, read-out: Mean GI50 for all 60 cell lines”, the GI50 came out at 20 µM. The CC50 (Homo sapiens, five point dosing up to 10^−4 M, read-out: LC50 for all other cell lines (except COLO 205)) was over 100 µM. In addition, the “toxicity (in words)” value (concentrations up to 10^−4 M) is “not toxic at the concentrations tested; also recorded: not observed”. In addition, for the setting “five point dosing 10^−8 to 10^−4 M, 60 cell lines”, the “growth inhibition / anti-proliferative efficacy (in words)” value was “significant growth inhibition across all 60 cell lines; also recorded: anti-proliferative efficacy across a range of 60 cell lines”. Under setting [1], the “log10GI50 Delta” value is reported as 1.45, the “log10GI50 Mean” value is on record as −5.0 and the “log10GI50 Range” value turned out to be 2.45. In addition, under “within dosage range tested, of 60 cell lines”, the “number of cell lines in which total growth inhibition (growth percent=0, TGI) was achieved” value is “eight”.
